# Reference: patent US20160166560A1, “Urea Compounds and Their Use as FAAH Enzyme Inhibitors” (BIAL-PORTELA & Cª, S.A., priority 2013, published 2016)
# Counter-ions that a name gives are not always drawn.
# What was measured:
# FAAH [1] = target: T1, FAAH (Mus musculus, UniProt O08914); assay: In vitro/ex vivo FAAH activity determination in liver after intra-tracheal instillation; set-up: Liver and brain fragments were removed and processed for enzymatic activity determination; from tissue; host or cells: mouse liver fragment homogenate; species or system male NMRI mice; conditions: remaining enzymatic activity vs controls, 1 mg/kg intra-tracheal instillation, sacrificed after 8 h
# T1 sequence (O08914 1-579): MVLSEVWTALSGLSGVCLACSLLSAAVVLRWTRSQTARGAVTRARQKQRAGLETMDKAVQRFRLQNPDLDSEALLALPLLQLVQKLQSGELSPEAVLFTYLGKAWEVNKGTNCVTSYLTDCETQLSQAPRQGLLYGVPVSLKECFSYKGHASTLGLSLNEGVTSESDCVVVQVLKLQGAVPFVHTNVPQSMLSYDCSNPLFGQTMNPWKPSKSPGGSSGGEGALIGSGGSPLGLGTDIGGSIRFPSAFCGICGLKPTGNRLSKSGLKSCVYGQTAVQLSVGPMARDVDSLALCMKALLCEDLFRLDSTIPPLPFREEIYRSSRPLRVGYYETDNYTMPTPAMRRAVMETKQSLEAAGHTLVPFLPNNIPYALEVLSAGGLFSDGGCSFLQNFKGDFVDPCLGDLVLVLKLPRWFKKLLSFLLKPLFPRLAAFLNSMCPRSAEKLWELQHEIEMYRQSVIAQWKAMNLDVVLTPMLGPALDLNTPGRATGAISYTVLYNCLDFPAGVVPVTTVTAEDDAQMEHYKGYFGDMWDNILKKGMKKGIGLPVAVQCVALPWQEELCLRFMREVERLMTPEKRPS
# Procedure: (§1) To evaluate the selectivity of test compounds in inhibiting FAAH activity, male NMRI mice were administrated following instillation with 1 mg/kg compound and were sacrificed after 8 h treatment. Liver and brain fragments were removed and processed for enzymatic activity determination.
# (§2) FAAH activity was measured as the amount of ^3H-ethanolamine formed, by liquid scintillation counting, from the hydrolysis of the substrate anandamide (AEA, labeled with ^3H on the ethanolamine part of the molecule). The percentage of remaining enzymatic activity was calculated in respect to controls and after blank subtraction. Therefore, a low value for the test compounds indicates a strong inhibitor.
# (§3) Male NMRI mice (body weight range: 25-35 g) were obtained from Harlan Laboratories (Barcelona, Spain). Animals were kept 10 per cage, under controlled environmental conditions (12 hr light [8 am]/12 hr dark [8 pm]cycle; room temperature 22±1° C.). Food and tap water were allowed ad libitum. Animals were habituated to the animal facilities at least for a week prior to experiments. The experiments were all carried out during daylight hours.
# (§4) Animals were fasted overnight before administration of compounds. […] After administration the animals were given atipamezole (1 mg/kg) to reverse the sedative and analgesic effects induced by the anaesthesia.
# (§5) Fifteen minutes before sacrifice, animals were anesthetized with pentobarbital 60 mg/kg administrated intra-peritoneally. The brain (without cerebellum) and a fragment of liver were collected into plastic vials containing membrane buffer (3 mM MgCl2, 1 mM EDTA, 50 mM Tris HCl, pH 7.4). Glass beads (2.5 mm BioSpec Products, Bartlesville, Okla., USA) were added to the vials containing the brain and liver tissues. Tissues were stored at −20° C. until analysis.
# (§6) Anandamide [ethanolamine-1-^3H-] was obtained from American Radiochemicals—with a specific activity of 60 Ci/mmol. All other reagents were obtained from Sigma-Aldrich. Optiphase Supermix was obtained from Perkin Elmer.
# (§7) Brain and liver tissues were thawed and homogenized in 10 volumes of membrane buffer (3 mM MgCl2, 1 mM EDTA, 50 mM Tris HCl, pH 7.4) with homogenizer Precellys 24 Dual Tissue Homogenizer (Bertin Technologies) for 2 cycles of 5 sec (5000 rpm).
# (§8) Total protein in the tissue homogenates was determined with the BioRad Protein Assay (BioRad) using a standard curve of BSA ([…]). Tissue homogenates were diluted to appropriate concentration for enzymatic determination in assay buffer (1 mM EDTA, 10 mM Tris HCl, pH 7.6).
# (§9) Reaction mix (total volume 200 μL) contained 2 μM AEA (2 μM AEA+5 nM ^3H-AEA), 0.1% fatty acid free BSA, 15 μg (brain) or 5 μg (liver) protein, in assay buffer (1 mM EDTA, 10 mM Tris pH 7.6).
# (§10) The test compound was used at a level of 1 mg/kg protein. After 15 minutes pre-incubation at 37° C. of the protein sample, reaction was started by the addition of the substrate solution (cold AEA+radiolabelled AEA+BSA). Reaction was carried out for 12 minutes for brain and liver tissues. Reaction was terminated by addition of 400 μL chloroform:methanol (1:1, v/v) solution. Reaction samples were vortex twice, left on ice for 5 minutes and then centrifuged in the microfuge for 7 minutes, 7000 rpm. 200 μL of the obtained supernatants were added to […] Optiphase Supermix scintillation cocktail previously distributed in 24-well plates.
# (§11) Counts per minute (cpm) were determined in a Microbeta TriLux scintillation counter. In each assay blank samples (without protein) were prepared.
# CYPs = CYPs metabolic stability assay in HLM (human liver microsomes); assay type: in vitro ADME; conditions: HLM 1 mg/ml protein, compound 5 μM, 60 min, 37° C.; for Control (% remain): absence of NADPH; for CYP+ (% remain): with NADPH 1 mM
# Procedure: Stability of the test compounds was performed in HLM (human liver microsomes) in the presence and in the absence of NADPH.
# The stability was measured using the incubation mixture (100 μl total volume) contained 1 mg/ml total protein, MgCl2 5 mM and 50 mM K-phosphate buffer. Samples were incubated in the presence and in the absence of NADPH 1 mM. Reactions were pre-incubated 5 min and the reaction initiated with the compound under test (at a concentration of 5 μM). Samples were incubated for 60 min in a shaking water bath at 37° C. The reaction was stopped by adding 100 μl of acetonitrile. Samples were then centrifuged, filtered and supematant injected in HLPC-MSD. Test compounds were dissolved in DMSO and the final concentration of DMSO in the reaction was below 0.5% (v/v). At T0 acetonitrile was added before adding the compound. All experiments were performed with samples in duplicate.
# FAAH [2] = target: T1, FAAH; assay: In vitro/ex vivo FAAH activity determination in brain after intra-tracheal instillation; set-up: Liver and brain fragments were removed and processed for enzymatic activity determination; from tissue; species or system male NMRI mice; conditions: remaining enzymatic activity vs controls, 1 mg/kg intra-tracheal instillation, sacrificed after 8 h
# Procedure: as §1, §2, §3, §4, §5, §6, §7, §8, §9, §10, §11
FAAH Activity - Liver itc (% C) (FAAH [1]),Control (% remain) (CYPs),CYP+ (% remain) (CYPs),FAAH Activity - Brain itc (% C) (FAAH [2]),"FAAH Activity - Liver itc (% C) (FAAH [1]; hydrochloride, 1 mg/kg)","FAAH Activity - Brain itc (% C) (FAAH [2]; hydrochloride, 1 mg/kg)","FAAH Activity - Liver itc (% C) (FAAH [1]; methanesulfonate, 1 mg/kg)",Control (% remain) (CYPs; methanesulfonate),CYP+ (% remain) (CYPs; methanesulfonate),"FAAH Activity - Brain itc (% C) (FAAH [2]; methanesulfonate, 1 mg/kg)",Compound
3.9,102.5,62.8,107.2,,,,,,,"COc1cc(CN2CCC(N(C)C(=O)n3cnc(-c4cccc(OS(N)(=O)=O)c4)c3)CC2)cc(OC)c1.Cl [Example 9, 3-(1-((1-(3,5-dimethoxybenzyl)piperidin-4-yl)(methyl)carbamoyl)-1H-imidazol-4-yl)phenyl sulfamate hydrochloride]"
3.2,100.0,5.8,113.4,,,,,,,"COc1cc(CN2CCC(N(C)C(=O)n3cnc(-c4cccc(OS(N)(=O)=O)c4)c3)CC2)ccc1F [Example 10, 3-(1-((1-(4-fluoro-3-methoxybenzyl)piperidin-4-yl)(methyl)carbamoyl)-1H-imidazol-4-yl)phenyl sulfamate hydrochloride]"
4.4,100.0,5.9,84.2,,,,,,,"COc1cccc(CN2CCC(N(C)C(=O)n3cnc(-c4cccc(OS(N)(=O)=O)c4)c3)CC2)c1.Cl [Example 11, 3-(1-((1-(3-methoxybenzyl)piperidin-4-yl)(methyl)carbamoyl)-1H-imidazol-4-yl)phenyl sulfamate hydrochloride]"
3.8,106.2,7.9,108.7,,,,,,,"COc1cc(CN2CCC(N(C)C(=O)n3cnc(-c4ccc(OS(N)(=O)=O)cc4)c3)CC2)ccc1F [Example 12, 4-(1-((1-(4-fluoro-3-methoxybenzyl)piperidin-4-yl)(methyl)carbamoyl)-1 H-imidazol-4-yl)phenyl sulfamate oxalate]"
6.0,100.9,68.6,89.3,,,,,,,"COc1cccc(CN2CCC(N(C)C(=O)n3cnc(-c4ccc(OS(N)(=O)=O)cc4)c3)CC2)c1 [Example 14, 4-(1-((1-(3-methoxybenzyl)piperidin-4-yl)(methyl)carbamoyl)-1H-imidazol-4-yl)phenyl sulfamate hydrochloride]"
3.0,94.4,87.1,91.1,,,,,,,"CN(C(=O)n1cnc(-c2cccc(OS(N)(=O)=O)c2)c1)C1CCN(c2ccc(O)cc2)CC1 [Example 15, 3-(1-((1-(4-hydroxyphenyl)piperidin-4-yl)(methyl)carbamoyl)-1H-imidazol-4-yl)phenyl sulfamate hydrochloride]"
,101.4,17.0,,4.5,96.9,,,,,"CN(C(=O)n1cnc(-c2cccc(NC(N)=O)c2)c1)C1CCN(Cc2ccccc2)CC1 [Example 16, N-(1-benzylpiperidin-4-yl)-N-methyl-4-(3-ureidophenyl)-1H-imidazole-1-carboxamide hydrochloride]"
3.4,97.6,76.8,93.3,,,,,,,"CN(C(=O)n1cnc(-c2cccc(NC(N)=O)c2)c1)C1CCN(Cc2ccc3c(c2)OCO3)CC1.Cl [Example 18, N-(1-(benzo[d][1,3]dioxol-5-ylmethyl)piperidin-4-yl)-N-methyl-4-(3-ureidophenyl)-1H-imidazole-1-carboxamide hydrochloride]"
5.7,91.5,76.2,92.6,,,,,,,"CN(C(=O)n1cnc(-c2cccc(NS(C)(=O)=O)c2)c1)C1CCN(c2ccc(O)cc2)CC1 [Example 24, N-(1-(4-hydroxyphenyl)piperidin-4-yl)-N-methyl-4-(3-(methylsulfonamido)phenyl)-1H-imidazole-1-carboxamide hydrochloride]"
9.0,61.5,49.1,100.7,,,,,,,"CN(C(=O)n1cnc(-c2cccc(NC(N)=O)c2)c1)C1CCN(c2ccc(O)cc2)CC1 [Example 25, N-(1-(4-hydroxyphenyl)piperidin-4-yl)-N-methyl-4-(3-ureidophenyl)-1 H-imidazole-1-carboxamide hydrochloride]"
12.4,97.7,81.4,124.3,,,,,,,"COc1ccc(CN2CCC(N(C)C(=O)n3cnc(-c4cccc(NC(N)=O)c4)c3)CC2)cc1OC [Example 26, N-(1-(3,4-dimethoxybenzyl)piperidin-4-yl)-N-methyl-4-(3-ureidophenyl)-1H-imidazole-1-carboxamide hydrochloride]"
,,,,,,13.9,96.9,26.7,84.3,"COc1cc(CN2CCC(N(C)C(=O)n3cnc(-c4ccc(OS(N)(=O)=O)cc4)c3)CC2)cc(OC)c1 [Example 27, 4-(1-((1-(3,5-dimethoxybenzyl)piperidin-4-yl)(methyl)carbamoyl)-1H-imidazol-4-yl)phenyl sulfamate methanesulfonate]"
